Format in all cases: cell-based
Series [1] deals with T1, BCRP (Homo sapiens, UniProt Q9UNQ0).
T1 construct: expressed in transfected cells; host or cells: PLB985 human myeloid leukemia cells stably expressing BCRP (gift of B. Sarkadi and K. Nemet, Budapest)
Briefly: BCRP inhibition: steady-state mitoxantrone accumulation in BCRP-expressing PLB985 cells (flow cytometry). Conditions: for IC50: BCRP IC50, mitoxantrone 7 μM, PLB985 BCRP cells, mean±SD, at least n=3 (11 a n=2); for Hill coefficient BCRP: Hill coefficient of IC50 measurement, mean ± SD of n experiments; for in vitro classification as BCRP inhibitor: IC50 below 10 μM considered active; for inhibition at 20 min, 100 µM: human, PLB985 cells stably expressing BCRP, pH 7.4, probe mitoxantrone (7 µM), 100µM compound, compared to positive control Ko143 (1µM) set as 100%, mean of 3 independent experiments, read-out: In vitro activity (% inhibition), BCRP, Table S1. The method, then:
(§1) P‐gp and BCRP inhibitory activity was assessed by implementing an intracellular accumulation assay of daunorubicin or mitoxantrone in cells overexpressing P‐gp or BCRP, respectively. In a first run, the effect of compounds 5, 6, 10, 11, and 16 (Figure 2) at 100 μM final concentration was tested (Figure 3). All compounds showing an inhibitory effect of more than 50 % compared with full inhibition by the known inhibitors of P‐gp (verapamil) and BCRP (Ko143) were further processed, and IC50 values were determined (IC50 curves and Hill coefficients are available in Figure S1 and Table S3 in the Supporting Information). […] For P‐gp, nine compounds were classified as inhibitors (5 a, 5 b, 6 a, 10 a, 10 b, 11 b, 16 a, 16 b, 16 c).
(§2) Cell culture: The human myeloid leukemia PLB985 parental and stably expressing BCRP cell lines31 were kindly provided by B. Sarkadi (Institute of Enzymology, Research Centre for Natural Sciences, Budapest, Hungary) and K. Nemet (Creative Cell Ltd., Budapest, Hungary). Both cell lines were cultured in RPMI 1640 supplemented with 10 % FBS and 100 IU mL^−1 of penicillin and streptomycin. The human T‐lymphoblast cell line CCRF VCR1000, overexpressing P‐gp, was obtained by stepwise selection of CCRF‐CEM in vincristine‐containing medium32 and was kindly provided by V. Gekeler (Altana‐Pharma formerly Byk‐Gulden, Konstanz, Germany). CCRF VCR1000 cells were cultured in RPMI 1640 medium containing 20 % FBS and were treated regularly with vincristine (1 μg mL^−1) for about 72 h, followed by centrifugation (300 g, 5 min, RT) and resuspension in normal culture medium. All cell lines were maintained at 37 °C in an atmosphere containing 5 % CO2 with 95 % relative humidity.
(§3) Steady‐state accumulation experiments: For BCRP and P‐gp inhibition studies, the steady‐state accumulation of mitoxantrone (7 μM) and daunorubicin (3 μM), respectively, was performed as previously described.33 Briefly, cells were harvested, pelleted (300 g, 5 min, 4 °C), diluted to a concentration of 12×10^6 cells mL^−1 in HPMI (10 mM Hepes, 120 mM NaCl, 5 mM KCl, 0.4 mM MgCl2, 0.04 mM CaCl2, 10 mM glucose, 10 mM NaHCO3, 5 mM Na2HPO4, pH 7.4 with NaOH) and kept on ice for further processing. For each data point, the cell suspension (25 μL) was preincubated for 5 min at 37 °C with 2 % DMSO (25 μL) in HPMI alone (DMSO control) or containing different concentrations of test compound solutions. Thereafter, cells were preloaded with daunorubicin (50 μL) or mitoxantrone (50 μL) for 30 or 20 min at 37 °C, respectively, to reach a final concentration of 3 or 7 μM, respectively. […] Preloading was stopped by chilling cells on ice for 5 min followed by the addition of 400 μL ice‐cold PBS. Cells were pelleted (300 g, 5 min, 4 °C), the supernatant was discarded, and the cell pellet was resuspended in ice‐cold PBS (150 μL). Until measurement, cells were kept on ice and in the dark. Immediately before cell fluorescence measurement by flow cytometry (BD Accuri C6 and BD FACSCalibur, Becton Dickinson, San Jose, CA, USA; MACSQuant, MiltenyiBiotec GmbH, BergischGladbach, Germany), 50 μL of 4′,6‐diamidin‐2‐phenylindole solution (DAPI, 4 μg mL^−1 in PBS) was added to gate out dead cells. 100 μM verapamil and 1 μM Ko143 were used as positive controls for P‐gp and BCRP inhibition, respectively. […]
For orientation: In flow cytometry, cells or beads pass a laser one at a time.

Series [2] deals with T2, P-gp / BCRP (Homo sapiens, UniProt Q9UNQ0).
T2 construct: expressed in transfected cells; host or cells: PLB985 human myeloid leukemia cells stably expressing BCRP (gift of B. Sarkadi and K. Nemet, Budapest)
The description is as above. Conditions: human, pH 7.4, probe daunorubicin (3 µM) for P-gp; mitoxantrone (7 µM) for BCRP; IC50 P-gp / IC50 BCRP; read-out: selectivity index (SI) P-gp/BCRP. Here is the method: as §1, §2, §3

Series [3] addresses T3, P-gp (Homo sapiens, UniProt P08183).
T3 construct: was obtained by stepwise selection of CCRF‐CEM in vincristine‐containing medium; endogenous in cells; host or cells: CCRF VCR1000 (vincristine-selected subline of CCRF-CEM human T-lymphoblasts; gift of V. Gekeler)
Briefly: P-gp inhibition: steady-state daunorubicin accumulation in P-gp-overexpressing CCRF VCR1000 cells (flow cytometry). Conditions: for Hill coefficient P-gp: Hill coefficient of IC50 measurement, mean ± SD of n experiments; for in vitro classification as P-gp inhibitor: IC50 below 10 μM considered active; for IC50: daunorubicin 3 μM, CCRF VCR1000 cells, mean±SD, at least n=3; for fold higher IC50 value for BCRP than for P-gp: ratio IC50 BCRP / IC50 P-gp; for inhibition at 30 min, 100 µM: human, CCRF VCR1000 cells overexpressing P-gp, pH 7.4, probe daunorubicin (3 µM), 100µM compound, compared to positive control verapamil (100µM) set as 100%, mean of 3 independent experiments, read-out: In vitro activity (% inhibition), P-gp, Table S2. The method, then:
as §1, §2, §3

Results on twelve compounds are retold here after paper PMC4949556, “Subtle Structural Differences Trigger Inhibitory Activity of Propafenone Analogues at the Two Polyspecific ABC Transporters: P‐Glycoprotein (P‐gp) and Breast Cancer Resistance Protein (BCRP)” (Chemmedchem, 2016).

As usually defined, the IC50 is the concentration that inhibits the measured activity by half. Broadly, the inhibition is how much of the control response was suppressed.

Molecules are shown by their SMILES. “Also recorded” adds a separate entry of the source.

T1 sequence (Q9UNQ0 whole entry): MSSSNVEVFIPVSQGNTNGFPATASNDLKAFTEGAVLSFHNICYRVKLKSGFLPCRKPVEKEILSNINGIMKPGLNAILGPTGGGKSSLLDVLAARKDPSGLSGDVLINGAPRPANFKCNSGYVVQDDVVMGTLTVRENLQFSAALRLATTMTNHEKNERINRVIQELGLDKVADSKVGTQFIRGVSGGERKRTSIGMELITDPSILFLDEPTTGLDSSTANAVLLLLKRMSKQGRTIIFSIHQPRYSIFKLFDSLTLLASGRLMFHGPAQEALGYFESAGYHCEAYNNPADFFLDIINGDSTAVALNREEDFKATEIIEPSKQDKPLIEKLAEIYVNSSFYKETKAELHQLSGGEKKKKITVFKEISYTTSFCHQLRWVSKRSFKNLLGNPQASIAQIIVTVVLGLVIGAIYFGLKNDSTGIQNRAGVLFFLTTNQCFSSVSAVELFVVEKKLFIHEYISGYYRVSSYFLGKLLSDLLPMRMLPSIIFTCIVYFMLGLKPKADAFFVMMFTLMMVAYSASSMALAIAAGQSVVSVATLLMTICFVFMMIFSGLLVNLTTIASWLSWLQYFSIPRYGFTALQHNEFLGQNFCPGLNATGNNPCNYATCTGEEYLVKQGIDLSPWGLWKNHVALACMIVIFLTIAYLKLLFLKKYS
T3 sequence (P08183 whole entry): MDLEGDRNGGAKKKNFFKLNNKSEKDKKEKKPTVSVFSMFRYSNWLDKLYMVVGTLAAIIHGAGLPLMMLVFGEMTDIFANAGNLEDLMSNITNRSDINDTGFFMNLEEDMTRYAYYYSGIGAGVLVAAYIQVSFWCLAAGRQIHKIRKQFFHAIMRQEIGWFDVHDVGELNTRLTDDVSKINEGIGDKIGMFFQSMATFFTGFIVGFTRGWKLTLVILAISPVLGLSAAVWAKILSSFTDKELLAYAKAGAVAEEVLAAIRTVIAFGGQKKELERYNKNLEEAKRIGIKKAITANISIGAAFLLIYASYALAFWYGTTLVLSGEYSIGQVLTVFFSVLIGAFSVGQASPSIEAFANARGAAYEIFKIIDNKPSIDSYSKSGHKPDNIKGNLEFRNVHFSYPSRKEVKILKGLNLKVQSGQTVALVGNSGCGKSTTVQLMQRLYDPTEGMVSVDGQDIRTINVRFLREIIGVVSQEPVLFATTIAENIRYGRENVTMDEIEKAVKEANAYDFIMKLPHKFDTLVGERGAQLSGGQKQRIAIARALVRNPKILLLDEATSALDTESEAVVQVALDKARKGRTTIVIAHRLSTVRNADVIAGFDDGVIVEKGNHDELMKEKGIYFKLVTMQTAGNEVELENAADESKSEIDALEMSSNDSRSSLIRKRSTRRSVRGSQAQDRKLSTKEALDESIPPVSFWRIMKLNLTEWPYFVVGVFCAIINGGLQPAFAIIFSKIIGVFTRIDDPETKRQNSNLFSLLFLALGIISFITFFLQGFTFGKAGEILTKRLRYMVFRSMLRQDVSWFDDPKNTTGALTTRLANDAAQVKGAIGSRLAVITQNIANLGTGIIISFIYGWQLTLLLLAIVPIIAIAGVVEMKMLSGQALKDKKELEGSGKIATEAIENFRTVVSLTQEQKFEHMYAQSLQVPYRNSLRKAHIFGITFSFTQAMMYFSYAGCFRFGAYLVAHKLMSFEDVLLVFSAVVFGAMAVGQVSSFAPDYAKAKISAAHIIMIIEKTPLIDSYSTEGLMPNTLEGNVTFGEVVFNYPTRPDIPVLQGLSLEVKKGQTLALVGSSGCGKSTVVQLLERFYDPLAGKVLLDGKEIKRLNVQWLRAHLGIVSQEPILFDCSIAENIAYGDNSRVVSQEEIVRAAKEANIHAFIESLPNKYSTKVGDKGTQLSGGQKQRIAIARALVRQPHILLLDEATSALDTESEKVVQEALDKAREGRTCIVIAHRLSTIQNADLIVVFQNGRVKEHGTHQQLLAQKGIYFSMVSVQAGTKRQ
T2 sequence (Q9UNQ0 whole entry): as the sequence (Q9UNQ0 whole entry) above

For `O=C(CCc1ccccc1)c1ccccc1OCC(O)CNC(=O)C1CCCN1` (stereo not shown) [Compound 5 a, N ‐(2‐hydroxy‐3‐(2‐(3‐phenylpropanoyl)phenoxy)propyl)pyrrolidine‐2‐carboxamide], in series [1], the IC50 was 16.1 µM, the “Hill coefficient BCRP” value is 1.4±0.3 and the “in vitro classification as BCRP inhibitor” value was “borderline activity”. Moreover, the selectivity ratio in series [2] worked out at 0.13. Further, in series [3], the “Hill coefficient P-gp” value was 1.3±0.2; the “in vitro classification as P-gp inhibitor” value is “inhibitors”; the midpoint of inhibition, the IC50, lay at 2.1 ± 0.4 µM; the “fold higher IC50 value for BCRP than for P-gp” value is listed as “more than fivefold”.
As to `COc1ccc(C(=O)CCc2ccccc2)c(OCC(O)CNC(=O)C2CCCN2)c1` (stereo not shown) [Compound 5 b, N‐(2‐hydroxy‐3‐(5‐methoxy‐2‐(3‐phenylpropanoyl)phenoxy)propyl)‐pyrrolidine‐2‐carboxamide], in series [1], the IC50 came to 3.1 ± 0.5 µM, the “Hill coefficient BCRP” value came to 1.4±0.1 and the “in vitro classification as BCRP inhibitor” value is “inhibitors”. In series [3], the “Hill coefficient P-gp” value is reported as 1.3±0.2, the “in vitro classification as P-gp inhibitor” value was “inhibitors”, the IC50 was determined as 2.2 ± 0.6 µM and the “fold higher IC50 value for BCRP than for P-gp” value is on record as 1.4 fold.
On to `CC(=O)c1ccccc1OCC(O)CNC(=O)C1CCCN1` (stereo not shown) [Compound 5 c, N ‐(3‐(2‐acetylphenoxy)‐2‐hydroxypropyl)pyrrolidine‐2‐carboxamide], for which, in series [1], the “in vitro classification as BCRP inhibitor” value is recorded as “noninhibitors” and the inhibition at 20 min, 100 µM was found to be 20%. Besides, in series [3], the “Hill coefficient P-gp” value is reported as 1.9±0.2, the “in vitro classification as P-gp inhibitor” value is recorded as “noninhibitors” and the IC50 was determined as 58.7 ± 9.2 µM.
On to `CC(=O)c1ccccc1OCC(O)CN1CC(=O)N2CCCC2C1=O` (stereo not shown) [Compound 6 c, 2‐(3‐(2‐Acetylphenoxy)‐2‐hydroxypropyl)hexahydropyrrolo[1,2‐a]‐pyrazine‐1,4‐dione], for which, in series [1], the “in vitro classification as BCRP inhibitor” value is “noninhibitors” and the inhibition at 20 min, 100 µM was determined as 33%. Further, in series [3], the “in vitro classification as P-gp inhibitor” value is on record as “noninhibitors” and the inhibition at 30 min, 100 µM amounted to 4%.
For the compound `O=C(CCc1ccccc1)c1ccccc1OCCNC(=O)C1CCCN1` (stereo not shown) [Compound 10 a, N ‐(2‐(2‐(3‐phenylpropanoyl)phenoxy)ethyl)pyrrolidine‐2‐carboxamide], in series [1], half-maximal inhibition (IC50) was put at 3.3 ± 0.6 µM, the “Hill coefficient BCRP” value was 1.3±0.2 and the “in vitro classification as BCRP inhibitor” value was “inhibitors”. Besides, in series [3], the “Hill coefficient P-gp” value turned out to be 1.6±0.2, the “in vitro classification as P-gp inhibitor” value is “inhibitors”, the IC50 was found to be 1.3 ± 0.1 µM and the “fold higher IC50 value for BCRP than for P-gp” value is listed as “more than 2.6 fold”.
`COc1ccc(C(=O)CCc2ccccc2)c(OCCNC(=O)C2CCCN2)c1` (stereo not shown) [Compound 10 b]: in series [1], the IC50 amounted to 2.9 ± 0.5 µM, the “Hill coefficient BCRP” value is given as 1.0±0.1 and the “in vitro classification as BCRP inhibitor” value is listed as “inhibitors”. In series [3], the “Hill coefficient P-gp” value is given as 1.1±0.1, the “in vitro classification as P-gp inhibitor” value is recorded as “inhibitors”, the 50% inhibitory concentration (IC50) came to 1 ± 0.2 µM and the “fold higher IC50 value for BCRP than for P-gp” value is “more than 2.6 fold”.
`CC(=O)c1ccccc1OCCNC(=O)C1CCCN1` (stereo not shown) [Compound 10 c, N ‐(2‐(2‐acetylphenoxy)ethyl)pyrrolidine‐2‐carboxamide]: in series [1], the “in vitro classification as BCRP inhibitor” value is given as “noninhibitors” and the inhibition at 20 min, 100 µM came to 24%. Moreover, in series [3], the “Hill coefficient P-gp” value is listed as 2.2±0.4; the “in vitro classification as P-gp inhibitor” value is recorded as “noninhibitors”; the midpoint of inhibition, the IC50, lay at 34.8 ± 1.8 µM.
For the compound `O=C(CCc1ccccc1)c1ccccc1OCCN1CC(=O)N2CCCC2C1=O` (stereo not shown) [Compound 11 a, 2‐(2‐(2‐(3‐Phenylpropanoyl)phenoxy)ethyl)hexahydropyrrolo[1,2‐a]‐pyrazine‐1,4‐dione], in series [1], half-maximal inhibition (IC50) required 21.5 ± 2.9 µM, the “Hill coefficient BCRP” value turned out to be 1.0±0.0 and the “in vitro classification as BCRP inhibitor” value is on record as “weak inhibitor”. Moreover, in series [3], the “Hill coefficient P-gp” value amounted to 1.8±0.4, the “in vitro classification as P-gp inhibitor” value is reported as “borderline inhibitory activity; also recorded: borderline inhibitor”, the IC50 stood at 13.9 ± 1.5 µM and the “fold higher IC50 value for BCRP than for P-gp” value stood at 1.5 fold.
As for `CC(=O)c1ccccc1OCCN1CC(=O)N2CCCC2C1=O` (stereo not shown) [Compound 11 c, 2‐(2‐(2‐Acetylphenoxy)ethyl)hexahydropyrrolo[1,2‐a]pyrazine‐1,4‐dione], in series [1], the “in vitro classification as BCRP inhibitor” value is given as “noninhibitors” and the inhibition at 20 min, 100 µM was 37%. In series [3], the “in vitro classification as P-gp inhibitor” value is “noninhibitors” and the inhibition at 30 min, 100 µM was 8%.
For `CC(C)NCC(O)COc1ccccc1C(=O)CCc1ccccc1` (stereo not shown) [Compound 16 a, 1‐(2‐(2‐Hydroxy‐3‐(isopropylamino)propoxy)phenyl)‐3‐phenyl‐propan‐1‐one], the inhibition at 20 min, 100 µM in series [1] turned out to be 53%. Moreover, in series [3], the “Hill coefficient P-gp” value is given as 0.9±0.1, the “in vitro classification as P-gp inhibitor” value is on record as “inhibitors”, half-maximal inhibition (IC50) required 0.3 µM and the “fold higher IC50 value for BCRP than for P-gp” value is reported as “more than fivefold”.
For `CC(CF)NCC(O)COc1ccccc1C(=O)CCc1ccccc1` (stereo not shown) [Compound 16 b, 1‐(2‐(3‐((1‐Fluoropropan‐2‐yl)amino)‐2‐hydroxypropoxy)phenyl)‐3‐phenylpropan‐1‐one], in series [1], the IC50 came to 5.5 ± 0.9 µM, the “Hill coefficient BCRP” value is listed as 1.6±0.2 and the “in vitro classification as BCRP inhibitor” value was “inhibitors”. Moreover, in series [3], the “Hill coefficient P-gp” value was 1.3±0.2, the “in vitro classification as P-gp inhibitor” value is on record as “inhibitors”, half-maximal inhibition (IC50) was put at 0.5 ± 0.1 µM and the “fold higher IC50 value for BCRP than for P-gp” value is reported as “more than fivefold”.
For the compound `CC(NCC(O)COc1ccccc1C(=O)CCc1ccccc1)C(F)F` (stereo not shown) [Compound 16 c, 1‐(2‐(3‐((1,1‐Difluoropropan‐2‐yl)amino)‐2‐hydroxypropoxy)phenyl)‐3‐phenylpropan‐1‐one], in series [1], the IC50 was found to be 4.9 ± 1.1 µM, the “Hill coefficient BCRP” value amounted to 1.0±0.2 and the “in vitro classification as BCRP inhibitor” value was “inhibitors”. Besides, in series [3], the “Hill coefficient P-gp” value was found to be 1.5±0.1, the “in vitro classification as P-gp inhibitor” value was “inhibitors”, half-maximal inhibition (IC50) was put at 0.9 ± 0.2 µM and the “fold higher IC50 value for BCRP than for P-gp” value is given as “more than fivefold”.
